From the supplement of paper PMC10307832

Key:
Assay in all cases: relative viability (nuclei count vs DMSO), 5 days (fraction); higher = more cells survive
[1] = test system: NCI-H1975
In short: (§1)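 Relative viability is defined as nuclei in treated wells over nuclei in vehicle wells. Duplicate plates were run and medians reported. Lung cancer cell lines in 1536-well plates were dosed by pin tool one day after seeding, with one drug or with a fixed anchor-drug dose plus five library-drug doses (not always all listed) in √10 steps, and nuclei were counted after 5 days.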

[2] = test system: NCI-H1734
In short: as §1

[3] = test system: LXF-289
In short: as §1

[4] = test system: NCI-H1648
In short: as §1

[5] = test system: HARA
In short: as §1

[6] = test system: 201T
In short: as §1

[7] = test system: NCI-H1703
In short: as §1

[8] = test system: HCC-78
In short: as §1

[9] = test system: NCI-H1650
In short: as §1

[10] = test system: NCI-H1623
In short: as §1

[11] = test system: NCI-H1299
In short: as §1

[12] = test system: IA-LM
In short: as §1

[13] = test system: Calu-6
In short: as §1

[14] = test system: A549
In short: as §1

[15] = test system: EBC-1
In short: as §1

`COCC1(CO)C(=O)C2CCN1CC2` (configuration not stated) [PRIMA-1MET] + NC(=O)Nc1cc(-c2cccc(F)c2)sc1C(=O)N[C@H]1CCCNC1 [AZD7762] (partner 0.2 µM) gave a relative viability ([1]; first compound 0.2 µM) of 0.807, a relative viability ([1]; first compound 0.6325 µM) of 0.648 and a relative viability ([1]; first compound 2 µM) of 0.651. For the same compound, the relative viability ([1]; first compound 6.325 µM) was 0.811, the relative viability ([1]; first compound 20 µM) was 0.181 and the relative viability ([2]; first compound 0.2 µM) was 0.52. For the same compound, the relative viability ([2]; first compound 0.6325 µM) was 0.538, the relative viability ([2]; first compound 2 µM) was 0.685 and the relative viability ([2]; first compound 6.325 µM) was 0.452. It also gave a relative viability ([2]; first compound 20 µM) of 0.0452, a relative viability ([3]; first compound 0.2 µM) of 1.15 and a relative viability ([3]; first compound 0.6325 µM) of 1.07. The relative viability ([3]; first compound 2 µM) was 1.13, the relative viability ([3]; first compound 6.325 µM) was 1.12 and the relative viability ([3]; first compound 20 µM) was 1.01. It also gave a relative viability ([4]; first compound 0.2 µM) of 0.729, a relative viability ([4]; first compound 2 µM) of 0.655 and a relative viability ([4]; first compound 20 µM) of 0.663. It also gave a relative viability ([5]; first compound 0.2 µM) of 0.308, a relative viability ([5]; first compound 0.6325 µM) of 0.265 and a relative viability ([5]; first compound 2 µM) of 0.493. The relative viability ([5]; first compound 6.325 µM) was 0.333, the relative viability ([5]; first compound 20 µM) was 0.254 and the relative viability ([6]; first compound 0.2 µM) was 0.484. The relative viability ([6]; first compound 0.6325 µM) was 0.578, the relative viability ([6]; first compound 2 µM) was 0.626 and the relative viability ([6]; first compound 6.325 µM) was 0.577. For the same compound, the relative viability ([6]; first compound 20 µM) was 0.563, the relative viability ([7]; first compound 0.6325 µM) was 0.158 and the relative viability ([7]; first compound 6.325 µM) was 0.121. It also gave a relative viability ([7]; first compound 20 µM) of 0.0239, a relative viability ([8]; first compound 0.2 µM) of 0.893 and a relative viability ([8]; first compound 0.6325 µM) of 0.62. It also gave a relative viability ([8]; first compound 2 µM) of 0.555, a relative viability ([8]; first compound 6.325 µM) of 0.69 and a relative viability ([8]; first compound 20 µM) of 0.174.
`COCC1(CO)C(=O)C2CCN1CC2` (configuration not stated) [PRIMA-1MET] + CC(=O)Nc1cccc(-n2c(=O)n(C3CC3)c(=O)c3c(Nc4ccc(I)cc4F)n(C)c(=O)c(C)c32)c1 [Trametinib] (partner 0.02 µM) gave a relative viability ([1]; first compound 0.2 µM) of 0.362, a relative viability ([1]; first compound 0.6325 µM) of 0.232 and a relative viability ([1]; first compound 2 µM) of 0.277. It also gave a relative viability ([1]; first compound 6.325 µM) of 0.351, a relative viability ([1]; first compound 20 µM) of 0.457 and a relative viability ([2]; first compound 0.2 µM) of 0.564. It also gave a relative viability ([2]; first compound 0.6325 µM) of 0.622, a relative viability ([2]; first compound 2 µM) of 0.584 and a relative viability ([2]; first compound 6.325 µM) of 0.581. It also gave a relative viability ([2]; first compound 20 µM) of 0.0425, a relative viability ([3]; first compound 0.2 µM) of 0.582 and a relative viability ([3]; first compound 0.6325 µM) of 0.591. It also gave a relative viability ([3]; first compound 2 µM) of 0.67, a relative viability ([3]; first compound 6.325 µM) of 0.651 and a relative viability ([3]; first compound 20 µM) of 0.659. The relative viability ([9]; first compound 0.2 µM) was 0.545, the relative viability ([9]; first compound 0.6325 µM) was 0.48 and the relative viability ([9]; first compound 2 µM) was 0.636. It also gave a relative viability ([9]; first compound 6.325 µM) of 0.595, a relative viability ([9]; first compound 20 µM) of 0.0646 and a relative viability ([4]; first compound 0.2 µM) of 0.396. The relative viability ([4]; first compound 2 µM) was 0.445, the relative viability ([4]; first compound 20 µM) was 0.553 and the relative viability ([5]; first compound 0.2 µM) was 0.403. For the same compound, the relative viability ([5]; first compound 0.6325 µM) was 0.754, the relative viability ([5]; first compound 2 µM) was 0.647 and the relative viability ([5]; first compound 6.325 µM) was 0.529. It also gave a relative viability ([5]; first compound 20 µM) of 0.736, a relative viability ([6]; first compound 0.2 µM) of 0.757 and a relative viability ([6]; first compound 0.6325 µM) of 0.74. For the same compound, the relative viability ([6]; first compound 2 µM) was 0.684, the relative viability ([6]; first compound 6.325 µM) was 0.749 and the relative viability ([6]; first compound 20 µM) was 0.721. The relative viability ([8]; first compound 0.2 µM) was 0.676, the relative viability ([8]; first compound 0.6325 µM) was 0.708 and the relative viability ([8]; first compound 2 µM) was 0.478. For the same compound, the relative viability ([8]; first compound 6.325 µM) was 0.596 and the relative viability ([8]; first compound 20 µM) was 0.331.
Work on `COCC1(CO)C(=O)C2CCN1CC2` (configuration not stated) [PRIMA-1MET] + COc1cc2c(Oc3ccc(NC(=O)C4(C(=O)Nc5ccc(F)cc5)CC4)cc3F)ccnc2cc1OCCCN1CCOCC1 [Foretinib] (partner 0.25 µM) yielded a relative viability ([1]; first compound 0.2 µM) of 1.07, a relative viability ([1]; first compound 0.6325 µM) of 0.958 and a relative viability ([1]; first compound 2 µM) of 0.916. The relative viability ([1]; first compound 6.325 µM) was 1.01, the relative viability ([1]; first compound 20 µM) was 0.626 and the relative viability ([10]; first compound 0.2 µM) was 0.789. The relative viability ([10]; first compound 0.6325 µM) was 0.819, the relative viability ([10]; first compound 2 µM) was 0.744 and the relative viability ([10]; first compound 6.325 µM) was 0.905. The relative viability ([10]; first compound 20 µM) was 0.701, the relative viability ([2]; first compound 0.2 µM) was 1.04 and the relative viability ([2]; first compound 0.6325 µM) was 0.741. The relative viability ([2]; first compound 2 µM) was 0.741, the relative viability ([2]; first compound 6.325 µM) was 0.759 and the relative viability ([2]; first compound 20 µM) was 0.0666. The relative viability ([11]; first compound 0.2 µM) was 1.13, the relative viability ([11]; first compound 0.6325 µM) was 1.12 and the relative viability ([11]; first compound 2 µM) was 1.19. The relative viability ([11]; first compound 6.325 µM) was 1.12, the relative viability ([11]; first compound 20 µM) was 1.02 and the relative viability ([12]; first compound 0.2 µM) was 1.07. The relative viability ([12]; first compound 0.6325 µM) was 1.12, the relative viability ([12]; first compound 2 µM) was 1.35 and the relative viability ([12]; first compound 6.325 µM) was 1.06. The relative viability ([12]; first compound 20 µM) was 1.07, the relative viability ([3]; first compound 0.2 µM) was 1.05 and the relative viability ([3]; first compound 0.6325 µM) was 0.95. The relative viability ([3]; first compound 2 µM) was 0.993, the relative viability ([3]; first compound 6.325 µM) was 1.02 and the relative viability ([3]; first compound 20 µM) was 0.949. The relative viability ([13]; first compound 0.2 µM) was 0.918, the relative viability ([13]; first compound 0.6325 µM) was 0.649 and the relative viability ([13]; first compound 2 µM) was 0.899. The relative viability ([13]; first compound 6.325 µM) was 0.904, the relative viability ([13]; first compound 20 µM) was 0.335 and the relative viability ([14]; first compound 0.2 µM) was 1.02. It also gave a relative viability ([14]; first compound 0.6325 µM) of 0.834, a relative viability ([14]; first compound 2 µM) of 1.07 and a relative viability ([14]; first compound 6.325 µM) of 0.807. It also gave a relative viability ([14]; first compound 20 µM) of 0.894, a relative viability ([9]; first compound 0.2 µM) of 1.45 and a relative viability ([9]; first compound 0.6325 µM) of 1.03. For the same compound, the relative viability ([9]; first compound 2 µM) was 1.1, the relative viability ([9]; first compound 6.325 µM) was 0.924 and the relative viability ([9]; first compound 20 µM) was 0.364. For the same compound, the relative viability ([15]; first compound 0.2 µM) was 0.101, the relative viability ([15]; first compound 0.6325 µM) was 0.0986 and the relative viability ([15]; first compound 2 µM) was 0.105. The relative viability ([15]; first compound 6.325 µM) was 0.107, the relative viability ([15]; first compound 20 µM) was 0.122 and the relative viability ([5]; first compound 0.2 µM) was 1. The relative viability ([5]; first compound 0.6325 µM) was 0.881, the relative viability ([5]; first compound 6.325 µM) was 0.742 and the relative viability ([5]; first compound 20 µM) was 0.704. It also gave a relative viability ([6]; first compound 0.2 µM) of 1.33, a relative viability ([6]; first compound 0.6325 µM) of 1.09 and a relative viability ([6]; first compound 2 µM) of 0.97. For the same compound, the relative viability ([6]; first compound 6.325 µM) was 1.15, the relative viability ([6]; first compound 20 µM) was 1.08 and the relative viability ([7]; first compound 0.2 µM) was 0.512. The relative viability ([7]; first compound 0.6325 µM) was 0.368, the relative viability ([7]; first compound 2 µM) was 0.353 and the relative viability ([7]; first compound 6.325 µM) was 0.388. It also gave a relative viability ([7]; first compound 20 µM) of 0.0682, a relative viability ([8]; first compound 0.2 µM) of 0.671 and a relative viability ([8]; first compound 0.6325 µM) of 0.477. For the same compound, the relative viability ([8]; first compound 6.325 µM) was 0.54 and the relative viability ([8]; first compound 20 µM) was 0.441.
